Experimental data: patent publication US20210207082A1, “SPHERICAL 3D TUMOR SPHEROID” (KOREA INSTITUTE OF SCIENCE AND TECHNOLOGY, priority 2019, published 2021)

Key:
[1] = test system: 3D multicellular tumor spheroids (ASC, BMSC or FIB + MDA-MB-231); assay: Necrosis (PI) assay, three types of 3D spheroids; assay type: cell-based, human; settings: 10 μM doxorubicin, 48 hours
Experimental: (§1) Apoptotic and necrotic cells in spheroids were assayed using Real Time-Glo™ Annexin V apoptosis and necrosis assays. Real Time-Glo™ Annexin V apoptosis and necrosis assays were performed in combination with a cell viability assay. […] Thereafter, 2X apoptosis and necrosis formulations of the same volume (100 μL) were added to each well according to standard protocol proposed in manufacturer's instructions.
(§2) To investigate drug sensitivity depending on the viability against doxorubicin in the spheroids, Real Time-Glo™ Annexin V apoptosis and necrosis assays were performed. If apoptosis is induced by a drug response, a cell membrane is reversed to expose phosphatidyl-serine (PS), and an apoptotic cell can be analyzed by binding PS with Annexin V detected by a luminescence signal. A necrotic cell is detected by binding DNA with PI (green) that produces a fluorescence signal when the necrotic cell invades into a cell and a cell membrane loses integrity.

FIB+MDA-MB-231 spheroid [2] = assay: Real Time-Glo MT cell viability assay, 3D multicellular tumor spheroid; assay type: cell-based; settings: Homo sapiens, 48 h; 10 μM doxorubicin for two days
[3] = test system: three types of 3D spheroids versus 2D monolayer; assay: 3D versus 2D comparison of cell viability; assay type: cell-based, human; settings: doxorubicin
BMSC+MDA-MB-231 spheroid [4] = assay: Real Time-Glo MT cell viability assay, 3D multicellular tumor spheroid; assay type: cell-based; settings: Homo sapiens, 48 h; 10 μM doxorubicin for two days
BMSC+MDA-MB-231 spheroid [5] = assay: Real Time-Glo Annexin V apoptosis assay, 3D spheroid; assay type: cell-based, human; settings: 10 μM doxorubicin, 48 hours
Experimental: as §1, §2

ASC+MDA-MB-231 spheroid [6] = assay: as above; assay type: cell-based, human; settings: 10 μM doxorubicin, 48 hours
Experimental: as §1, §2

FIB+MDA-MB-231 spheroid [7] = assay: as above; assay type: cell-based, human; settings: 10 μM doxorubicin, 48 hours
Experimental: as §1, §2

ASC+MDA-MB-231 spheroid [8] = assay: Real Time-Glo MT cell viability assay, 3D multicellular tumor spheroid

## COc1cccc2c1C(=O)c1c(O)c3c(c(O)c1C2=O)C[C@@](O)(C(=O)CO)C[C@@H]3O[C@H]1C[C@H](N)[C@H](O)[C@H](C)O1 [doxorubicin]
[1]
  necrosis (PI), difference between spheroid types: No significant difference
FIB+MDA-MB-231 spheroid [2]
  viability at 10 µM: 43%
[3]
  drug sensitivity of 3D spheroids compared with 2D monolayer: lower drug sensitivity
BMSC+MDA-MB-231 spheroid [4]
  viability at 10 µM: 48.3%
BMSC+MDA-MB-231 spheroid [5]
  apoptosis (Annexin V) fold change: 10 fold
ASC+MDA-MB-231 spheroid [6]
  apoptosis (Annexin V) fold change: 9 fold
FIB+MDA-MB-231 spheroid [7]
  apoptosis (Annexin V) fold change: about 13 times
ASC+MDA-MB-231 spheroid [8]; 10 μM doxorubicin for two days
  cell viability: 56.67%
ASC+MDA-MB-231 spheroid [8]; ASC:MDA-MB-231 co-culture ratio 5:5, 10 μM doxorubicin, 48 hours
  viability, compared with other co-culture ratios: highest
